Tests used:
[1] = target: cAMP-dependent protein kinase catalytic subunit PRKX (Homo sapiens) (UniProt P51817); settings: Compound concentration 1000.0 nM
[2] = test system: Serine/threonine-protein kinase B-raf (Homo sapiens), P15056 [V600E]; settings: Compound concentration 1000.0 nM
[3] = target: Homeodomain-interacting protein kinase 2 (Homo sapiens) (UniProt Q9H2X6); settings: Compound concentration 1000.0 nM
[4] = target: Inhibitor of nuclear factor kappa-B kinase subunit beta (Homo sapiens) (UniProt O14920); settings: Compound concentration 1000.0 nM
[5] = test system: Epidermal growth factor receptor (Homo sapiens), P00533 [UNDEFINED MUTATION]; settings: Compound concentration 1000.0 nM
[6] = target: Bone morphogenetic protein receptor type-1A (Homo sapiens) (UniProt P36894); settings: Compound concentration 1000.0 nM
[7] = target: Phosphorylase b kinase gamma catalytic chain, skeletal muscle/heart isoform (Homo sapiens) (UniProt Q16816); settings: Compound concentration 1000.0 nM
[8] = target: Mitogen-activated protein kinase kinase kinase 10 (Homo sapiens) (UniProt Q02779); settings: Compound concentration 1000.0 nM
[9] = target: Peripheral plasma membrane protein CASK (Homo sapiens) (UniProt O14936); settings: Compound concentration 1000.0 nM
[10] = target: Serine/threonine-protein kinase PknB (Mycobacterium tuberculosis) (UniProt P9WI81); settings: Compound concentration 1000.0 nM
[11] = target: Calcium/calmodulin-dependent protein kinase type 1 (Homo sapiens) (UniProt Q14012); settings: Compound concentration 1000.0 nM
[12] = target: Tyrosine-protein kinase Fyn (Homo sapiens) (UniProt P06241); settings: Compound concentration 1000.0 nM
[13] = target: Tyrosine-protein kinase JAK2 (Homo sapiens) (UniProt O60674); settings: Compound concentration 1000.0 nM
[14] = test system: Epidermal growth factor receptor (Homo sapiens), P00533 [L861Q]; settings: Compound concentration 1000.0 nM
[15] = target: Homeodomain-interacting protein kinase 1 (Homo sapiens) (UniProt Q86Z02); settings: Compound concentration 1000.0 nM
[16] = target: Phosphatidylinositol 5-phosphate 4-kinase type-2 beta (Homo sapiens) (UniProt P78356); settings: Compound concentration 1000.0 nM
[17] = target: Serine/threonine-protein kinase D1 (Homo sapiens) (UniProt Q15139); settings: Compound concentration 1000.0 nM
[18] = target: Calcium/calmodulin-dependent protein kinase type II subunit gamma (Homo sapiens) (UniProt Q13555); settings: Compound concentration 1000.0 nM
[19] = target: Death-associated protein kinase 2 (Homo sapiens) (UniProt Q9UIK4); settings: Compound concentration 1000.0 nM
[20] = target: Ephrin type-B receptor 4 (Homo sapiens) (UniProt P54760); settings: Compound concentration 1000.0 nM
[21] = target: Fibroblast growth factor receptor 2 (Homo sapiens) (UniProt P21802); settings: Compound concentration 1000.0 nM
[22] = target: TRAF2 and NCK-interacting protein kinase (Homo sapiens) (UniProt Q9UKE5); settings: Compound concentration 1000.0 nM
[23] = target: Sodium-dependent dopamine transporter (Homo sapiens, UniProt Q01959); settings: Compound concentration 10.0 uM
[24] = target: T1, Alpha-1A adrenergic receptor (Homo sapiens) (UniProt P35348); settings: Compound concentration 10.0 uM
T1 sequence (whole entry): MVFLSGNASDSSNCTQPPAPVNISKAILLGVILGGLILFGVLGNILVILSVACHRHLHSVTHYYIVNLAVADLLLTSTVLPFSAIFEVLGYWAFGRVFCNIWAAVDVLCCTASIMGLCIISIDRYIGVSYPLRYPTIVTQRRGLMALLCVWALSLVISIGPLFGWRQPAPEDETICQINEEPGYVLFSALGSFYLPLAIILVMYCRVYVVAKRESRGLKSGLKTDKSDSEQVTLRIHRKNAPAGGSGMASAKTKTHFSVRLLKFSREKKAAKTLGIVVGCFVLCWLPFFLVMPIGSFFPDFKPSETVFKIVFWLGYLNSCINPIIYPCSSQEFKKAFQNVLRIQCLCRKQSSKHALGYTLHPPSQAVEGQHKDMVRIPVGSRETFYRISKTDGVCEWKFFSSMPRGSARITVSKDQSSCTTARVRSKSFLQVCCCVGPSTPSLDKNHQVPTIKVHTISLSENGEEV

[25] = target: Hormonally up-regulated neu tumor-associated kinase (Homo sapiens) (UniProt P57058); settings: Compound concentration 1000.0 nM
[26] = target: Vascular endothelial growth factor receptor 2 (Homo sapiens) (UniProt P35968); settings: Compound concentration 1000.0 nM
[27] = target: RAC-gamma serine/threonine-protein kinase (Homo sapiens) (UniProt Q9Y243); settings: Compound concentration 1000.0 nM
Histamine H1 receptor = Histamine H1 receptor (Homo sapiens, UniProt P35367); settings: Compound concentration 10.0 uM
[28] = target: Serine/threonine-protein kinase PAK 1 (Homo sapiens) (UniProt Q13153); settings: Compound concentration 1000.0 nM
[29] = test system: Tyrosine-protein kinase ABL1 (Homo sapiens), P00519 [T315I]; settings: Compound concentration 1000.0 nM
[30] = target: Cyclin-G-associated kinase (Homo sapiens) (UniProt O14976); settings: Compound concentration 1000.0 nM
[31] = target: SNF-related serine/threonine-protein kinase (Homo sapiens) (UniProt Q9NRH2); settings: Compound concentration 1000.0 nM
[32] = target: Casein kinase I isoform gamma-3 (Homo sapiens) (UniProt Q9Y6M4); settings: Compound concentration 1000.0 nM
[33] = target: T2, Testis-specific serine/threonine-protein kinase 1 (Homo sapiens) (UniProt Q9BXA7); settings: Compound concentration 1000.0 nM
T2 sequence (whole entry): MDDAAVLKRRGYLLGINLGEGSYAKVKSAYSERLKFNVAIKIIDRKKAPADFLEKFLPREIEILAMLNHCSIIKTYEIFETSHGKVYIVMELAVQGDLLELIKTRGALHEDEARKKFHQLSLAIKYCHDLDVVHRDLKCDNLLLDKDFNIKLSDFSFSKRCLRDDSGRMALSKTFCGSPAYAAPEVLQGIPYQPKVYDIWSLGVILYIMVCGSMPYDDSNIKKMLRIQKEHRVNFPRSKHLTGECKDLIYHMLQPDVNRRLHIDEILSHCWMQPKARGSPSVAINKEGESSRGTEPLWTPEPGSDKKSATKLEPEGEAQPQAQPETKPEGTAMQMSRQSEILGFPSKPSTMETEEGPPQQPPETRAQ

Calcium/calmodulin-dependent protein kinase type 1 (Homo sapiens), sequence (Q14012 whole entry, looked up): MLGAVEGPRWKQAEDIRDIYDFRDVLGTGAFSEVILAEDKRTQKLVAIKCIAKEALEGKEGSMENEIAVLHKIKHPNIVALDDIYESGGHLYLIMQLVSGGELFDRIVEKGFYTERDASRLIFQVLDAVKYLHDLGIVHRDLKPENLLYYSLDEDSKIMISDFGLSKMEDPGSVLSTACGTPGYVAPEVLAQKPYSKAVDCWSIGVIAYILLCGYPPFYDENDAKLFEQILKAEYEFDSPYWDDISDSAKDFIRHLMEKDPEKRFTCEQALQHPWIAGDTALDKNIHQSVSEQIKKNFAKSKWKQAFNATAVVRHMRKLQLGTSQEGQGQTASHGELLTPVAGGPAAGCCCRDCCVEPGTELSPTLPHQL
RAC-gamma serine/threonine-protein kinase (Homo sapiens), sequence (Q9Y243 whole entry): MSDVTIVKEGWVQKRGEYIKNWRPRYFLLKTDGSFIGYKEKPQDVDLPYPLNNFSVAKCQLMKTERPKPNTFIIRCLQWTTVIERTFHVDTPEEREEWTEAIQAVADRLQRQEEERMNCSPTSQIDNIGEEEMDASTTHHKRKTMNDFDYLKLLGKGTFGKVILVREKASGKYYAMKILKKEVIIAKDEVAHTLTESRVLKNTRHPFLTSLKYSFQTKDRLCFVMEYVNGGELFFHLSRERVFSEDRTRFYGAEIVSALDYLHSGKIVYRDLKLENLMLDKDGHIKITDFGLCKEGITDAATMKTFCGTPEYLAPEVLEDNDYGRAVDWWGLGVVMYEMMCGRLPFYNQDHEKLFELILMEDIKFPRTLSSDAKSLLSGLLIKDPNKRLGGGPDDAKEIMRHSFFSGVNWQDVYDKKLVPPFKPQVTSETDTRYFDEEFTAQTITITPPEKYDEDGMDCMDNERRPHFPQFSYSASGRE
Phosphorylase b kinase gamma catalytic chain, skeletal muscle/heart isoform (Homo sapiens), sequence (Q16816 whole entry, looked up, canonical isoform): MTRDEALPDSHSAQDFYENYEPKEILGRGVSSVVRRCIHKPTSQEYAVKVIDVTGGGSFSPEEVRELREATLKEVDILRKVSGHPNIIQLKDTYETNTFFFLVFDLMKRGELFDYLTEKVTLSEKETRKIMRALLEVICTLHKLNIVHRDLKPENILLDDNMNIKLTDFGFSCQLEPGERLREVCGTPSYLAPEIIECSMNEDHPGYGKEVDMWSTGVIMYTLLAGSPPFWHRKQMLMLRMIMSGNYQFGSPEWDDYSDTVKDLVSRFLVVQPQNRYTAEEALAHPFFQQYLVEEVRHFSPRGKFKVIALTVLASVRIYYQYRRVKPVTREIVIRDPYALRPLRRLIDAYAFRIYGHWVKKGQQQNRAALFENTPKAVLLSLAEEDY
Vascular endothelial growth factor receptor 2 (Homo sapiens), sequence (P35968 whole entry): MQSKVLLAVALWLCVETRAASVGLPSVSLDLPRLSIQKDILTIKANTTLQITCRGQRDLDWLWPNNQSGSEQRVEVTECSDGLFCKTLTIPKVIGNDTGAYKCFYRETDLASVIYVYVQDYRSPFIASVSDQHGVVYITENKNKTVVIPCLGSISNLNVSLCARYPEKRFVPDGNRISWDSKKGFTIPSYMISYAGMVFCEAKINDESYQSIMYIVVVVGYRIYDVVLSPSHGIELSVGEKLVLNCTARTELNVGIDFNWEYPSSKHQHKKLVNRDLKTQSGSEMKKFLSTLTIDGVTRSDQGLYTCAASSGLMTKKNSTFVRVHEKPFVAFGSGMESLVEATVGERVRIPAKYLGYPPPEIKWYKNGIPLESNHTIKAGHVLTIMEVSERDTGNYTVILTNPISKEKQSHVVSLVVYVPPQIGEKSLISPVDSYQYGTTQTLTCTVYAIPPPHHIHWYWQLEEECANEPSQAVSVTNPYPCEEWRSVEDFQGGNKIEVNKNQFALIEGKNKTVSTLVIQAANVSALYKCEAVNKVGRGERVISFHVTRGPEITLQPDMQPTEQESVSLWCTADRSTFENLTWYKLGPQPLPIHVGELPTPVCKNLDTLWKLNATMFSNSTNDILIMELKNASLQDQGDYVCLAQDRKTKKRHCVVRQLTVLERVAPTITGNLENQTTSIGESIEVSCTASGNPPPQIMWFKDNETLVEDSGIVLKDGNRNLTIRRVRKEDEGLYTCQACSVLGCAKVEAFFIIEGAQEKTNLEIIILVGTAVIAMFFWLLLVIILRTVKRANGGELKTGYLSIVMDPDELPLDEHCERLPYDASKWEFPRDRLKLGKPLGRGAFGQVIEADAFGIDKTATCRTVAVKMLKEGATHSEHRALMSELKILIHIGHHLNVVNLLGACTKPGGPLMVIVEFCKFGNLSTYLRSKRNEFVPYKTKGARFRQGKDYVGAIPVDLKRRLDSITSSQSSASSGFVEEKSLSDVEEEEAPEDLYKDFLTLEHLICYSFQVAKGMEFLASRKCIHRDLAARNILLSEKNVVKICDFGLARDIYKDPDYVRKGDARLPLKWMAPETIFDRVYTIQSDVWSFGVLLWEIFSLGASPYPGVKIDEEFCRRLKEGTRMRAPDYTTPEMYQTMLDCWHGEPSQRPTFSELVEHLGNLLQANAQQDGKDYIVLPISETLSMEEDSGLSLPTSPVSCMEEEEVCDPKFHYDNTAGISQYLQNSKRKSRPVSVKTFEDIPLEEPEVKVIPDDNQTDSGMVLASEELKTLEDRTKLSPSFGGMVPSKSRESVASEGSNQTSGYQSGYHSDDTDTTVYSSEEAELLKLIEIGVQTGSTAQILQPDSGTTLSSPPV
TRAF2 and NCK-interacting protein kinase (Homo sapiens), sequence (Q9UKE5 whole entry, looked up): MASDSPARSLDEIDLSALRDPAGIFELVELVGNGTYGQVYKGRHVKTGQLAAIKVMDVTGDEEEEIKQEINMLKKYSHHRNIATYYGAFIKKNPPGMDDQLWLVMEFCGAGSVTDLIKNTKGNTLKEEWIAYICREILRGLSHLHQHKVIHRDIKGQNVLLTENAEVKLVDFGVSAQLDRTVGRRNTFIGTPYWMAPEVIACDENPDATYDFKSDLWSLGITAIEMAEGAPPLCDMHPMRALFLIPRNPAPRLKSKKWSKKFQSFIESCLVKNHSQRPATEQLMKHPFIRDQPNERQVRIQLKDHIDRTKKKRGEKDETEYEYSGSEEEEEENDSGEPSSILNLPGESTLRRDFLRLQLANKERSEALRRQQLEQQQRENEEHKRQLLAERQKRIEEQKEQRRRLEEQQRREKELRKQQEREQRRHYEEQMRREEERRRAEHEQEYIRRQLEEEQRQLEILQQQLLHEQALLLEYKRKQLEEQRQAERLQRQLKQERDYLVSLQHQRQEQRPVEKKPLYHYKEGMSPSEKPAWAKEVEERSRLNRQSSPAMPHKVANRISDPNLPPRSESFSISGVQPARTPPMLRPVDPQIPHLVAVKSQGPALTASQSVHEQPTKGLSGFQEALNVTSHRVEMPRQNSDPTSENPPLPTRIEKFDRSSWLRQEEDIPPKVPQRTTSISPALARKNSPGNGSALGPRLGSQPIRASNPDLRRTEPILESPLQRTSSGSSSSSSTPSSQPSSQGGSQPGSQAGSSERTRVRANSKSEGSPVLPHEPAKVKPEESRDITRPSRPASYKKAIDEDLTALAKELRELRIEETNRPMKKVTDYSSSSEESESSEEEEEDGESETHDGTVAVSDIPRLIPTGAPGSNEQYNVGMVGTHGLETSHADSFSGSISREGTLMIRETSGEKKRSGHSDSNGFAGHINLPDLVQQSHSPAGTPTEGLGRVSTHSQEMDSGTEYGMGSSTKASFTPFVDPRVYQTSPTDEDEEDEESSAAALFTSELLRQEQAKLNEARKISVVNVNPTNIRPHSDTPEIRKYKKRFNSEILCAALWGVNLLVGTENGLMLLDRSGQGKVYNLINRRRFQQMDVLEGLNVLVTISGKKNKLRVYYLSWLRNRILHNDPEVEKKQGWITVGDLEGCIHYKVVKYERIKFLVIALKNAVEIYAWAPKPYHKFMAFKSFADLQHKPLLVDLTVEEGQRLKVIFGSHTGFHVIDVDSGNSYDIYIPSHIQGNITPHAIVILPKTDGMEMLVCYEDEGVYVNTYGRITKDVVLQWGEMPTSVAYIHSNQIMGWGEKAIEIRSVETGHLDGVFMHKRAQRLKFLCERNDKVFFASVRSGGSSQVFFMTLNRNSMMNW
Mitogen-activated protein kinase kinase kinase 10 (Homo sapiens), sequence (Q02779 whole entry, looked up): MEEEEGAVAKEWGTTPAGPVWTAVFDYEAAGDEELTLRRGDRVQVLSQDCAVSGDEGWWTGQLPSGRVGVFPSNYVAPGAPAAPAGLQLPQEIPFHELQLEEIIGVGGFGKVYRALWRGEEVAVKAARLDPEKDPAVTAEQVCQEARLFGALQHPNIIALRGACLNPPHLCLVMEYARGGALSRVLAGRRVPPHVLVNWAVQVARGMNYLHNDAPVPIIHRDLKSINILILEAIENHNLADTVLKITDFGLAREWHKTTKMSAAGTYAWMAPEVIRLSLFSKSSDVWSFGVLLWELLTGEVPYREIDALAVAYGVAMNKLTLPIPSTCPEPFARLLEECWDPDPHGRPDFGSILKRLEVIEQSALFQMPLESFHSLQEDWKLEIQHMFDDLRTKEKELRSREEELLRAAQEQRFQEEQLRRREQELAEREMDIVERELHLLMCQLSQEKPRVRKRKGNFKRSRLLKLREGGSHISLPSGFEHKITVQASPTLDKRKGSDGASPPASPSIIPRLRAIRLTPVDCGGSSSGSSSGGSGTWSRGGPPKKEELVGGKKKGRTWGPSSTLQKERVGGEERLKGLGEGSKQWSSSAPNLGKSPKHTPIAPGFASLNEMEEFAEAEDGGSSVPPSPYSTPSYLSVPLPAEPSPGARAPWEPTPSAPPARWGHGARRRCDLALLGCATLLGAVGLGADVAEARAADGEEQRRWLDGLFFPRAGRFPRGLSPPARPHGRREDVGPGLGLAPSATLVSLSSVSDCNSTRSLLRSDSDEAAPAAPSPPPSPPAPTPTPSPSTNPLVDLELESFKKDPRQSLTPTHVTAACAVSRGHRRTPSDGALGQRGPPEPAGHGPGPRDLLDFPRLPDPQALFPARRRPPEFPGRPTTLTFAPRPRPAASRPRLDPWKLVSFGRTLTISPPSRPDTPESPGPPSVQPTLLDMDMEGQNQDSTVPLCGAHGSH

`CNCc1ccccc1-c1csc([C@@H](C)Nc2nc(C)nc3cc(OC)c(OC)cc23)c1` [BAY-293] was tested, and the residual activity [1] was 67%, the residual activity [2] was 100% and the residual activity [3] was 86%. For the same molecule, the residual activity [4] was 94%, the residual activity [5] was 63% and the residual activity [6] was 91%. For the same molecule, the residual activity [7] was 83%, the residual activity [8] was 96% and the residual activity [9] was 81%. The residual activity [10] was 76%, the residual activity [11] was 100% and the residual activity [12] was 100%. It also gave a residual activity [13] of 67%, a residual activity [14] of 97% and a residual activity [15] of 78%. The residual activity [16] was 100%, the residual activity [17] was 90% and the residual activity [18] was 100%. It also gave a residual activity [19] of 100%, a residual activity [20] of 99% and a residual activity [21] of 85%. It also gave a residual activity [22] of 85%, an inhibition [23] of 77.2% and an inhibition [24] of 71.6%. It also gave a residual activity [25] of 100%, a residual activity [26] of 93% and a residual activity [27] of 92%. For the same molecule, the inhibition (Histamine H1 receptor) was 49.4%, the residual activity [28] was 97% and the residual activity [29] was 83%. For the same molecule, the residual activity [30] was 88%, the residual activity [31] was 78% and the residual activity [32] was 99%. For the same molecule, the residual activity [33] was 59%.
In the case of `CNCc1ccccc1-c1csc([C@H](C)Nc2nc(C)nc3cc(OC)c(OC)cc23)c1` [BAY-294], the residual activity [1] is reported as 76%, the residual activity [2] is reported as 84% and the residual activity [3] is reported as 76%. The residual activity [4] was 83%, the residual activity [5] was 81% and the residual activity [6] was 100%. For the same molecule, the residual activity [7] was 87%, the residual activity [8] was 100% and the residual activity [9] was 71%. It also gave a residual activity [10] of 90%, a residual activity [11] of 100% and a residual activity [12] of 100%. For the same molecule, the residual activity [13] was 63%, the residual activity [14] was 97% and the residual activity [15] was 79%. For the same molecule, the residual activity [16] was 100%, the residual activity [17] was 100% and the residual activity [18] was 90%. It also gave a residual activity [19] of 100%, a residual activity [20] of 100% and a residual activity [21] of 94%. For the same molecule, the residual activity [22] was 99%, the inhibition [23] was 70.3% and the inhibition [24] was 83.4%. For the same molecule, the residual activity [25] was 100%, the residual activity [26] was 91% and the residual activity [27] was 95%. For the same molecule, the inhibition (Histamine H1 receptor) was 56.7%, the residual activity [28] was 99% and the residual activity [29] was 87%. For the same molecule, the residual activity [30] was 90%, the residual activity [31] was 93% and the residual activity [32] was 93%. The residual activity [33] was 93%.

— ChEMBL document CHEMBL4507273 (2021)
